Numbers after ± are expanded uncertainties.

The nature of series [1]: refractive index (Na D-line) (dimensionless); xn = mol fraction of the nth substance listed. The conditions noted are these: 313.15 K; 101 kPa; Liquid; Standard Abbe refractometry; x1 = 0.333.
A short description of series [2]: xn = mol fraction of the nth substance listed. The conditions noted are these: 313.15 K; 101 kPa; Liquid; Vibrating tube method; x1 = 0.333.

In the case of `C[N+](C)(C)C.[Cl-]` [tetramethylammonium chloride] + OCCO, the refractive index in series [1] is reported as 1.45599 ± 0.00033. Besides, the mass density in series [2] turned out to be 1072.19 ± 0.19 kg/m3.

For orientation: refractive index means a measure of how strongly the sample bends light. As usually defined, the mass density is mass per unit of volume.

Values taken from the NIST ThermoML archive (doi:10.1016/j.fluid.2018.01.019).
